SMILES strings stand for the structures. Where a name gives a salt, the structure may show the parent alone.

Assay [1] deals with T1, Human vitronectin receptor (αvβ3) (Homo sapiens, UniProt P05106+P06756).
T1 construct: Human vitronectin receptor (αvβ3) was purified from human placenta; from tissue; host or cells: human placenta
The assay is described as follows: Vitronectin adhesion assay (solid phase receptor assay, competition with biotinylated vitronectin). In kind it is binding. To be noted: read-out: AvB3 IC50. In outline:
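Purified human αvβ3 coated overnight at 4 °C in TBS with 1.0 mM Ca++, Mg++, Mn++, pH 7.4; compounds (top final 1.0×10^−4 M) competed with 1 nM biotinylated vitronectin for 2 h at room temperature. Bound ligand detected by HRP anti-biotin/OPD at A450; values normalized to no-competitor controls, four-parameter curve fit.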

In assay [2] the target is T2, Human fibrinogen receptor (αIIbβ3) (Homo sapiens, UniProt P05106+P08514).
T2 construct: Human fibrinogen receptor (αIIbβ3) was purified from outdated platelets; from tissue; host or cells: outdated human platelets
Put plainly: Purified IIb/IIIa receptor assay (solid phase receptor assay, competition with biotinylated vitronectin). To be noted: read-out: IIb/IIIa IC50. In kind it is binding. A digest of the protocol: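 Competition format: 1 nM biotinylated vitronectin plus test compound (highest 1.0×10^−4 M), 2 h at room temperature on wells coated with platelet-derived αIIbβ3. Buffer was TBS containing 1.0 mM Ca, Mg, Mn, pH 7.4. HRP anti-biotin readout at 450 nm; normalized to maximum binding, four-parameter curve fit.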

As to `N=C(N)Nc1cccc(C(=O)NCC(=O)NC(CC(=O)O)c2ccc(F)cc2)c1` (stereo not drawn) [Example 363, β-[[2-[[[3-[(aminoiminomethyl)amino]phenyl]carbonyl]amino]acetyl]amino]-4-fluorobenzenepropanoic acid, trifluoroacetate salt], the IC50 in assay [1] came out at 2.12 nM; in assay [2], 509 nM.
In the same order, the values of `N=C(N)Nc1cccc(C(=O)NCC(=O)NC(CC(=O)O)c2cccc(Cl)c2)c1` (racemic) [Example 183, (±)β-[[2-[[[3-[(aminoiminomethyl)amino]phenyl]carbonyl]amino]acetyl]amino]-3-chlorobenzenepropanoic acid, trifluoroacetate salt] are 1.58 nM and 258 nM.
Taken in the same sequence, the figures for `N=C(N)Nc1cc(C(=O)O)cc(C(=O)NCC(=O)NC(CC(=O)O)c2cc(Cl)cc(Cl)c2)c1` (stereo not drawn) [Example 290, β-[[2-[[[3-[(aminoiminomethyl)amino]-5-carboxyphenyl]carbonyl]amino]acetyl]amino]-3,5-dichlorobenzenepropanoic acid, trifluoroacetate salt] were 1.62 nM and 1020 nM.
On to `N=C(N)Nc1ccc(O)c(C(=O)NCC(=O)NC(CC(=O)O)c2cc(Cl)cc(Cl)c2)c1` (stereo not drawn) [Example 279, β-[[2-[[[5-[(aminoiminomethyl)amino]-2-hydroxyphenyl]carbonyl]amino]acetyl]amino]-3,5-dichlorobenzenepropanoic acid, trifluoroacetate salt], for which the IC50 in assay [1] stood at 7.12 nM; in assay [2] it was 637 nM.
In the same order, the values of `N=C(N)Nc1cccc(C(=O)NCC(=O)NC(CC(=O)O)c2ccc(Br)s2)c1` (stereo not drawn) [Example 366, β-[[2-[[[3-[(aminoiminomethyl)amino]phenyl]carbonyl]amino]acetyl]amino]-5-bromothiophene-2-propanoic acid, trifluoroacetate salt, monohydrate] are 0.44 nM and 91.3 nM.
Turning to `O=C(O)CC(NC(=O)CNC(=O)c1cccc(NC(=O)NCc2ccncc2)c1)c1cccnc1` (stereo not drawn) [Example 266, β-[[2-[[[3-[[[(4-pyridinylmethyl)amino]carbonyl]amino]phenyl]carbonyl]amino]acetyl]amino]pyridine-3-propanoic acid, (bis)trifluoroacetate salt], the IC50 is 0.77 nM in assay [1] and 1810 nM in assay [2].
With `O=C(O)CC(NC(=O)CNC(=O)c1cccc(NC(=O)NCc2nc3ccccc3[nH]2)c1)c1cc(Cl)cc(Cl)c1` (stereo not drawn) [Example 272, β-[[2-[[[3-[[[[(1H-benzimidazol-2-yl)methyl)amino]carbonyl]amino]phenyl]carbonyl]amino]acetyl]amino]-3,5-dichlorobenzenepropanoic acid, trifluoroacetate salt], the IC50 in assay [1] turned out to be 893 nM; in assay [2] it was 8210 nM.
As for `N=C(N)Nc1cccc(C(=O)NCC(=O)NC(CC(=O)O)c2cc(Br)cc(I)c2)c1` (racemic) [Example 219, (±)β-[[2-[[[3-[(aminoiminomethyl)amino]phenyl]carbonyl]amino]acetyl]amino]-3-bromo-5-iodobenzenepropanoic acid trifluoroacetate salt], the IC50 in assay [1] is 2.29 nM; in assay [2] it was 253 nM.
In the same order, the values of `CCOC(=O)CC(NC(=O)CNC(=O)c1cccc(NC(N)=S)c1)c1ccccc1` (stereo not drawn) [Example 116, ethyl β-[[2-[[[3-[(aminothioxomethyl)amino]phenyl]carbonyl]amino]acetyl]amino]benzenepropanoate] are 15500 nM and more than 100000 nM.
Taken in the same sequence, the figures for `O=C(O)CC(NC(=O)CNC(=O)c1cccc(NC(=O)NNc2ccccc2)c1)c1cccnc1` (stereo not drawn) [Example 281, β-[[2-[[[3-[[[(phenylamino)amino]carbonyl]amino]phenyl]carbonyl]amino]acetyl]amino]pyridine-3-propanoic acid, trifluoroacetate salt] were 4.16 nM and 11500 nM.
In the same order, the values of `N=C(N)Nc1cccc(C(=O)NCC(=O)NC(CC(=O)O)c2cc(Br)cc(Br)c2)c1` (racemic) [Example 210, (±)β-[[2-[[[3-[(aminoiminomethyl)amino]phenyl]carbonyl]amino]acetyl]amino]-3,5-dibromobenzenepropanoic acid, trifluoroacetate salt] are 2.62 nM and 343 nM.
`CC(C)C(CC(=O)O)NC(=O)CNC(=O)c1cccc(NC(=N)N)c1` (stereo not drawn) [Example 263, 3-[[2-[[[3-[(aminoiminomethyl)amino]phenyl]carbonyl]amino]acetyl]amino]-4-methylpentanoic acid, trifluoroacetate salt]: the IC50 in assay [1] was determined as 4.19 nM; in assay [2], 2760 nM.
Consider `C/N=C(\NC)Nc1cccc(C(=O)NCC(=O)NC(CC(=O)O)c2cc(Cl)cc(Cl)c2)c1` (racemic) [Example 294, (±)3,5-dichloro-β-[[2-[[[3-[[(methylamino)(methylimino)methyl]amino]phenyl]carbonyl]amino]acetyl]amino]benzenepropanoic acid, trifluoroacetate salt], for which the figures for the IC50 in assay [1] and in assay [2] were 173 nM and 1990 nM, respectively.
As for `O=C(O)CC(NC(=O)CNC(=O)c1cccc(NC2=NCCN2)c1)c1cc(C(F)(F)F)cc(C(F)(F)F)c1` (racemic) [Example 179, (±)β-[[2-[[[3-[(4,5-dihydro-1H-imidazol-2-yl)amino]phenyl]carbonyl]amino]acetyl]-amino]-3,5-bis(trifluoromethyl)benzenepropanoic acid, trifluoroacetate salt], the IC50 in assay [1] amounted to 2.72 nM; in assay [2] it was 927 nM.
Taken in the same sequence, the figures for `O=C(O)CC(NC(=O)CNC(=O)c1cccc(Nc2nc3ccccc3o2)c1)c1cccnc1` (stereo not drawn) [Example 286, β-[[2-[[[3-[[benzoxazol-2-yl)amino]phenyl]carbonyl]amino]acetyl]amino]pyridine-3-propanoic acid, trifluoroacetate salt] were 413 nM and 8090 nM.
Regarding `O=C(O)CC(NC(=O)CNC(=O)c1cccc(NC2=NCCN2)c1)c1cc(Cl)cc(Cl)c1O` (racemic) [Example 238, trifluoroacetate salt, monohydrate], the IC50 stood at 0.92 nM in assay [1] and 646 nM in assay [2].
In the same order, the values of `N=C(N)NCc1cccc(C(=O)NCC(=O)NC(CC(=O)O)c2cccnc2)c1` (racemic) [Example 85, (±)β-[[2-[[[3-[[(aminoiminomethyl)amino]methyl]phenyl]carbonyl]amino]acetyl]amino]pyridine-3-propanoic acid, bis(trifluoroacetate)salt] are 6.65 nM and 8.07 nM.
In the same order, the values of `N=C(N)Nc1cccc(C(=O)NCC(=O)NC(CC(=O)O)c2cncc(Br)c2)c1` (racemic) [Example 235, (±)β-[[2-[[[3-[(aminoiminomethyl)amino]phenyl]carbonyl]amino]acetyl]amino]-5-bromopyridine-3-propanoic acid, bis(trifluoroacetate)salt, monohydrate] are 0.54 nM and 29.9 nM.
In the same order, the values of `O=C(CNC(=O)c1cccc(NC2=NCCCN2)c1)NC(CC(=O)OCCOCCOCCOCCO)c1cc(Cl)cc(Cl)c1` (racemic) [Example 217, (±)[2-[2-[2-(2-hydroxyethoxy)ethoxy]ethoxy]ethyl]3,5-dichloro-β-[[2-[[[3-[(1,4,5,6-tetrahydropyrimidin-2-yl)amino]phenyl]carbonyl]amino]acetyl]amino]benzenepropanoate, trifluoroacetate salt] are 74.8 nM and 78900 nM.
Turning to `N=C(N)Nc1cccc(C(=O)NCC(=O)NC(CC(=O)O)c2cc(Br)c(O)c(Br)c2)c1` (stereo not drawn) [Example 276, β-[[2-[[[3-[(aminoiminomethyl)amino]phenyl)carbonyl]amino]acetyl]amino]-3,5-dibromo-4-hydroxybenzenepropanoic acid, trifluoroacetate salt], the IC50 in assay [1] amounted to 1.25 nM; in assay [2] it was 111 nM.
In the same order, the values of `N=C(N)Nc1cccc(C(=O)NCC(=O)NC(CC(=O)O)c2cc(Cl)cc(Br)c2)c1` (racemic) [Example 214, (±)β-[[2-[[[3-[(aminoiminomethyl)amino]phenyl]carbonyl]amino]acetyl]amino]-3-bromo-5-chlorobenzenepropanoic acid, trifluoroacetate salt] are 2.35 nM and 454 nM.
Taken in the same sequence, the figures for `CC(NC(=O)c1cccc(NC(=N)N)c1)C(=O)NC(CC(=O)O)c1cccnc1` (stereo not drawn) [Example 82, β-[[2-[[[3-[(aminoiminomethyl)amino]phenyl]carbonyl]amino]-1-oxopropyl]amino]pyridine-3-propanoic acid, bis(trifluoroacetate)salt] were 334 nM and 353 nM.
On to `CCN/C(=N\C#N)Nc1cccc(C(=O)NCC(=O)NC(CC(=O)OCC)c2ccccc2)c1` (stereo not drawn) [Example 135, ethyl β-[[2-[[[3-[[(cyanoimino)(ethylamino)methyl]amino]phenyl]carbonyl]amino]acetyl]amino]benzenepropanoate], for which the IC50 in assay [1] is 50700 nM; in assay [2], more than 100000 nM.
In the same order, the values of `O=C(O)CC(NC(=O)CNC(=O)c1cccc(NC2=NCCC2)c1)c1cc(Cl)cc(Cl)c1` (racemic) [Example 203, (±)β-[[2-[[[3-[(3,4-dihydro-2H-pyrrol-5-yl)amino]phenyl]carbonyl]amino]acetyl]amino]-3,5-dichlorobenzenepropanoic acid, trifluoroacetate salt] are 3.56 nM and 650 nM.

For the origin of these results see US6831199B1, “Pyrimidine compounds and derivatives thereof” (G. D. Searle & Co., priority 1995, dated 2004).
